Results on three compounds are retold here after ChEMBL document CHEMBL5523669, “Sialyl LewisX glycomimetics bearing an extended anionic chain targeting E- and P- selectin binding sites” (Bioorg Med Chem, 2024).

One test addresses T1, P-selectin (Homo sapiens, UniProt P16109).
T1 sequence (P16109 whole entry): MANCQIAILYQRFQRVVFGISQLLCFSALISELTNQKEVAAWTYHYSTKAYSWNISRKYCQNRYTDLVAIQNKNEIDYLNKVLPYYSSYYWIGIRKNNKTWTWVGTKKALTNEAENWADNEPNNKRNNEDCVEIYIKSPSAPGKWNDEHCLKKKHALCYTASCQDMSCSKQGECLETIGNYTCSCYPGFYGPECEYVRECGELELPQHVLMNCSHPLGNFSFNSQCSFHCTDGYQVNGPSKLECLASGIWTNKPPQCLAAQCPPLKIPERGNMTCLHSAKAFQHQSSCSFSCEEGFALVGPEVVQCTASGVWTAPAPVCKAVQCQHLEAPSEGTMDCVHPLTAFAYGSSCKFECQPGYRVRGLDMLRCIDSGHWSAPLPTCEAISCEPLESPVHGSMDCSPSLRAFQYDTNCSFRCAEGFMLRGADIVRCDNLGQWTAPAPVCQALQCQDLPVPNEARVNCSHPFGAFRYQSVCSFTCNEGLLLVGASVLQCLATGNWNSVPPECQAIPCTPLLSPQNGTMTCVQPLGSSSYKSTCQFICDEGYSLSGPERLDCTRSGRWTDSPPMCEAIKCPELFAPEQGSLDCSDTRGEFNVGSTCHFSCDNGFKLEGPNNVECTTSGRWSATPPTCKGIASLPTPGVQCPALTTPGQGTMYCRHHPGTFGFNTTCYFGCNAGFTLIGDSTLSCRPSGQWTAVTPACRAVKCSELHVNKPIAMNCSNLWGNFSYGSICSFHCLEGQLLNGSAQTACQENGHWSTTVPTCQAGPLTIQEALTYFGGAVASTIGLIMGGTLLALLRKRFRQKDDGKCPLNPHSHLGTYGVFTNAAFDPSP
Description: Antagonist activity at recombinant human P-selectin assessed as inhibition of P-selection binding to homodimer human PSGL-1-Fc interaction measured after 30 mins by surface plasmon resonance (SPR) spectroscopy.

The target of test [1] is T2, E-selectin (Homo sapiens) (UniProt P16581).
T2 sequence (whole entry): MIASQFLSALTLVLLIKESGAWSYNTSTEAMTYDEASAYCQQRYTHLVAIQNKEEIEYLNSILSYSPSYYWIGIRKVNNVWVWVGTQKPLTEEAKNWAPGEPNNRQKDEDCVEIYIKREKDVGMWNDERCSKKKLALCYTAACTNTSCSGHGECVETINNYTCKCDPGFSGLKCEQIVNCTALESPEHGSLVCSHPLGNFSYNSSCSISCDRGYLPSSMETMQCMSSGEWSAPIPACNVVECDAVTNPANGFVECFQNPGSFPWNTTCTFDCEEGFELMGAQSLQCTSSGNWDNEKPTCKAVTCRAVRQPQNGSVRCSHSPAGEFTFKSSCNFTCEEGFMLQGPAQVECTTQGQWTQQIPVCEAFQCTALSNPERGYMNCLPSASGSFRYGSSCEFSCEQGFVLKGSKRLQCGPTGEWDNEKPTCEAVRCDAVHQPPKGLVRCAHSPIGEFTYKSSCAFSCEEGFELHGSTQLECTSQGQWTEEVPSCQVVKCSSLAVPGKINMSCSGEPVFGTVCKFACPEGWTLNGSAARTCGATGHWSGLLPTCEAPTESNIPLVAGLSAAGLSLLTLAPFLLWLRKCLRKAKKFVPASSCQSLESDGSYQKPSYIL
Briefly: Reduction in human HL-60 cell adhesion in E-Selectin Fc coated plates at 0.1 to 500 uM measured after 1 hr incubation by Cell-selectin adhesion assay. The class given is cell-based. As to conditions: filed as antagonist, dose 0.1-500 µM.

A further test deals with HL-60. Briefly: Reduction in human HL-60 cell adhesion in E-Selectin Fc coated plates measured after 1 hr incubation by Cell-selectin adhesion assay. As to conditions: filed as antagonist, dose 0.1-500 µM. The class given is cell-based.

The source made the active and inactive calls. No cut-off for these calls is given here.

As to `CC(C)OC(=O)[C@H](O[C@@H]1O[C@H](CO)[C@H](OC(=O)c2ccccc2)[C@H](O[C@H](Cc2ccccc2)C(=O)O)[C@H]1OC(=O)c1ccccc1)[C@@H](O[C@@H]1O[C@@H](C)[C@@H](O)[C@@H](O)[C@@H]1O)C(=O)O[C@@H](C)CCCn1cc(CCCCC(=O)Nc2ccc(OP(=O)(O)O)cc2)nn1`, at P-selectin, the IC50 (in general, the concentration needed to halve the response being measured) was 290 µM. Also, the result in test [1] was Active.

Turning to `CC(C)OC(=O)[C@H](O[C@@H]1O[C@@H](C)[C@@H](O)[C@@H](O)[C@@H]1O)[C@@H](O[C@@H]1O[C@H](CO)[C@H](O)[C@H](O[C@H](Cc2ccccc2)C(=O)O)[C@H]1OC(=O)c1ccccc1)C(=O)OC(C)C`, the IC50 at P-selectin was found to be 162 µM.

Take `CC(=O)N[C@H]1[C@H]([C@H](O)[C@H](O)CO)O[C@@](O[C@H]2[C@@H](O)[C@@H](CO)O[C@@H](O[C@@H]([C@H](O[C@@H]3O[C@@H](C)[C@@H](O)[C@@H](O)[C@@H]3O)[C@H](C=O)NC(C)=O)[C@H](O)CO)[C@@H]2O)(C(=O)O)C[C@@H]1O`: in the test on HL-60, the Activity entry was “Dose-Dependent Effect”. Also, the result in test [1] was Active.
